Data: publication PMC6277767, “Broad and Region-Specific Impacts of the Synthetic Cannabinoid CP 55,940 in Adolescent and Adult Female Mouse Brains” (Frontiers in Molecular Neuroscience, 2018)

System: CD1 female mouse brain lipidome
Test: Brain-region lipid levels (HPLC/MS/MS lipidomics) 2 h after single i.p. 3 mg/kg CP 55,940 vs vehicle
Assay type: in vivo
Design: N-arachidonoyl phenylalanine level, Mean / N-stearoyl tryptophan level, Mean / N-stearoyl proline level, Mean / N-stearoyl leucine level, Mean / N-stearoyl phenylalanine level, Mean / N-stearoyl serine level, Mean / N-stearoyl methionine level, Mean: unit: moles per gram
Description: The Bloomington Institutional Animal Care and Use Committee of Indiana University reviewed and approved the animal procedures. Female mice from the CD1 strain were utilized to match our study examining THC’s effects on the brain lipidome ([Leishman et al., 2018]). Mice were given a single i.p. injection of either 3 mg/kg CP or 1:1:18 cremophor:ethanol:saline vehicle (please refer to the section “3 mg/kg CP Is Relevant for Synthetic Cannabinoid Abuse and Has Stronger Effects on the Female Mouse Brain Lipidome During Adolescence” for a justification of dose and use of female mice). Three different age groups were given injections: PND 35 and PND 50 adolescents, and adult mice (PND 113). At least eight mice in each age group received CP and at least eight received vehicle. Matching the THC study time course ([Leishman et al., 2018]), mice were sacrificed via rapid decapitation 2 h after injection. Brains were immediately removed and flash-frozen in liquid nitrogen, and then stored at -80°C until dissections were performed. Brains were dissected on an ice-cold dissection plate into the following regions: STR, HIPP, CER, THAL, CTX, HYP, MID, and STEM. These abbreviations for these brain areas will be used exclusively when discussing the results generated by these specific dissections. Each dissected area was immediately placed in liquid nitrogen and then stored at -80°C until used for lipid extraction.
Tissue extracts were performed as previously described ([Bradshaw et al., 2006]; [Stuart et al., 2013]; [Raboune et al., 2014]; [Leishman et al., 2016a],[b], [2017], [2018]). First, samples were shock frozen in liquid nitrogen, weighed, and transferred to a centrifuge tube. The mass of the largest sample was multiplied by 50 to determine how many milliliters of HPLC-grade methanol (Fisher, Fair Lawn, NJ, United States) to add. Then, samples were spiked with 500 pmol deuterium-labeled NAGly (d8NAGly; Cayman Chemical, Ann Arbor, MI, United States). Samples were placed on ice in darkness for 2 h then individually homogenized and centrifuged at 19,000 × g for 20 min at 20°C. Supernatants were diluted with HPLC water (purified in house) to make a solution of 75% water, 25% supernatant. Lipids were partially purified on C18 solid phase extraction columns (Agilent, Palo Alto, CA, United States). A series of four elutions with 1.5 mL of 60%, 75%, 85%, and 100% methanol were collected ([Stuart et al., 2013]; [Leishman et al., 2016a],[b], [2018]).
As previously described ([Bradshaw et al., 2006]; [Tan et al., 2006]; [Smoum et al., 2010]; [Stuart et al., 2013]; [Tortoriello et al., 2013]; [Raboune et al., 2014]; [Leishman et al., 2016a],[b], [2017], [2018]), samples were analyzed using an Applied Biosystems API 3000 triple quadrupole mass spectrometer with electrospray ionization (Foster City, CA, United States). Using an Agilent XDB-C18 reversed phase analytical column and optimized mobile phase gradients, 20 μL from each elution were chromatographed. Two Shimadzu 10ADvp pumps (Columbia, MD, United States) provided the pressure for gradient elution. Mobile phase A: 20% methanol, 80% water (v/v) and 1 mM ammonium acetate (Sigma, St. Louis, MO, United States). Mobile phase B: 100% methanol, 1 mM ammonium acetate. Every method run began with 0% mobile phase B, reached 100% mobile phase B flowing at 0.2 mL/min, and gradually returned to 0% mobile phase B.
This screening library will be referred to as the lipidome when discussing data from this study. HPLC/MS/MS data were analyzed using Analyst software (Applied Biosystems) ([Bradshaw et al., 2006]; [Tan et al., 2006]; [Stuart et al., 2013]; [Tortoriello et al., 2013]; [Raboune et al., 2014]; [Leishman et al., 2016a],[b], [2017], [2018]). Chromatograms (Supplementary Figure 3) were generated by determining the retention time of analytes from the analytical column with a [M-1] or [M+1] parent peak and a fragmentation peak corresponding to the programmed values. […]

[1] = adult brainstem, 3mg/kg CP 55,940

CCCCCCC(C)(C)c1ccc([C@@H]2C[C@H](O)CC[C@H]2CCCO)c(O)c1 [CP 55,940]
N-stearoyl serine level vs vehicle (adult HIPP): ↓ (1-1.49 times lower than vehicle)
PGE2 level vs vehicle (adult HIPP): ↑ (1-1.49 times higher than vehicle)
PGE2 mean level in CP group divided by vehicle group (adult HIPP): 1.18
PGF2α level vs vehicle (adult HIPP): ↑ (1-1.49 times higher than vehicle)
number of lipids changed (adult HIPP): 12
phosphoLEA level vs vehicle (adult HIPP): ↑ (1-1.49 times higher than vehicle)
PGE2 mean level (adult HIPP, CP group): 3.37x10^-10 moles per gram
6-ketoPGF1α level vs vehicle (adult HYP): ↓↓ (1.50-1.99 times lower than vehicle)
N-arachidonoyl GABA level vs vehicle (adult HYP): ↓ (1-1.49 times lower than vehicle)
N-arachidonoyl taurine level vs vehicle (adult HYP): ↑ (1-1.49 times higher than vehicle)
N-palmitoyl phenylalanine level vs vehicle (adult HYP): ↑↑ (1.50-1.99 times higher than vehicle)
PGE2 level vs vehicle (adult HYP): ↑ (1-1.49 times higher than vehicle)
PGF2α level vs vehicle (adult HYP): ↓ (1-1.49 times lower than vehicle)
number of lipids changed (adult HYP): 7
phosphoLEA level vs vehicle (adult HYP): ↓ (1-1.49 times lower than vehicle)
2-arachidonoyl glycerol level vs vehicle (adult MID): ↓ (1-1.49 times lower than vehicle)
2-linoleoyl glycerol level vs vehicle (adult MID): ↓ (1-1.49 times lower than vehicle)
2-oleoyl glycerol level vs vehicle (adult MID): ↓ (1-1.49 times lower than vehicle)
6-ketoPGF1α level vs vehicle (adult MID): ↑ (1-1.49 times higher than vehicle)
Arachidonic acid level vs vehicle (adult MID): ↓ (1-1.49 times lower than vehicle)
N-arachidonoyl ethanolamine level vs vehicle (adult MID): ↓ (1-1.49 times lower than vehicle)
N-arachidonoyl serine level vs vehicle (adult MID): ↓↓ (1.50-1.99 times lower than vehicle)
N-linoleoyl glycine level vs vehicle (adult MID): ↓↓ (1.50-1.99 times lower than vehicle)
N-linoleoyl serine level vs vehicle (adult MID): ↓ (1-1.49 times lower than vehicle)
N-palmitoyl ethanolamine level vs vehicle (adult MID): ↓ (1-1.49 times lower than vehicle)
N-stearoyl ethanolamine level vs vehicle (adult MID): ↑ (1-1.49 times higher than vehicle)
PGE2 level vs vehicle (adult MID): ↑ (1-1.49 times higher than vehicle)
changes in lipid levels that were decreases (adult MID): 10
changes in lipid levels that were increases (adult MID): 3
percentage of lipids detected that decreased (adult MID): 18.52%
percentage of lipids detected that increased (adult MID): 5.55%
phosphoLEA level vs vehicle (adult MID): ↓ (1-1.49 times lower than vehicle)
number of lipids changed (adult MID, 54 detected): 13
2-arachidonoyl glycerol level vs vehicle (adult STEM): ↓ (1-1.49 times lower than vehicle)
2-linoleoyl glycerol level vs vehicle (adult STEM): ↓ (1-1.49 times lower than vehicle)
2-oleoyl glycerol level vs vehicle (adult STEM): ↓ (1-1.49 times lower than vehicle)
2-palmitoyl glycerol level vs vehicle (adult STEM): ↓ (1-1.49 times lower than vehicle)
Arachidonic acid level vs vehicle (adult STEM): ↓ (1-1.49 times lower than vehicle)
Linoleic acid level vs vehicle (adult STEM): ↓ (1-1.49 times lower than vehicle)
N-arachidonoyl taurine level vs vehicle (adult STEM): ↓ (1-1.49 times lower than vehicle)
N-arachidonoyl tyrosine level vs vehicle (adult STEM): ↓↓ (1.50-1.99 times lower than vehicle)
N-oleoyl ethanolamine level vs vehicle (adult STEM): ↓ (1-1.49 times lower than vehicle)
N-palmitoyl leucine level vs vehicle (adult STEM): ↑ (1-1.49 times higher than vehicle)
N-palmitoyl valine level vs vehicle (adult STEM): ↑ (1-1.49 times higher than vehicle)
Oleic Acid level vs vehicle (adult STEM): ↓ (1-1.49 times lower than vehicle)
PGE2 level vs vehicle (adult STEM): ↓ (1-1.49 times lower than vehicle)
number of lipids changed (adult STEM): 13
2-arachidonoyl glycerol level vs vehicle (adult STR): ↓ (1-1.49 times lower than vehicle)
Arachidonic acid level vs vehicle (adult STR): ↓ (1-1.49 times lower than vehicle)
N-arachidonoyl ethanolamine level vs vehicle (adult STR): ↓↓ (1.50-1.99 times lower than vehicle)
N-docosahexaenoyl ethanolamine level vs vehicle (adult STR): ↓ (1-1.49 times lower than vehicle)
N-linoleoyl ethanolamine level vs vehicle (adult STR): ↓ (1-1.49 times lower than vehicle)
N-oleoyl ethanolamine level vs vehicle (adult STR): ↓↓ (1.50-1.99 times lower than vehicle)
N-oleoyl leucine level vs vehicle (adult STR): ↑ (1-1.49 times higher than vehicle)
N-palmitoyl serine level vs vehicle (adult STR): ↓ (1-1.49 times lower than vehicle)
number of lipids changed (adult STR): 8
2-arachidonoyl glycerol level vs vehicle (adult THAL): ↓ (1-1.49 times lower than vehicle)
2-linoleoyl glycerol level vs vehicle (adult THAL): ↓ (1-1.49 times lower than vehicle)
6-ketoPGF1α level vs vehicle (adult THAL): ↑ (1-1.49 times higher than vehicle)
Arachidonic acid level vs vehicle (adult THAL): ↓ (1-1.49 times lower than vehicle)
N-arachidonoyl GABA level vs vehicle (adult THAL): ↓ (1-1.49 times lower than vehicle)
N-arachidonoyl alanine level vs vehicle (adult THAL): ↓↓ (1.50-1.99 times lower than vehicle)
N-arachidonoyl ethanolamine level vs vehicle (adult THAL): ↓ (1-1.49 times lower than vehicle)
N-arachidonoyl glycine level vs vehicle (adult THAL): ↓↓ (1.50-1.99 times lower than vehicle)
N-oleoyl ethanolamine level vs vehicle (adult THAL): ↓ (1-1.49 times lower than vehicle)
N-palmitoyl GABA level vs vehicle (adult THAL): ↑ (1-1.49 times higher than vehicle)
N-palmitoyl ethanolamine level vs vehicle (adult THAL): ↓ (1-1.49 times lower than vehicle)
N-palmitoyl leucine level vs vehicle (adult THAL): ↑ (1-1.49 times higher than vehicle)
N-palmitoyl methionine level vs vehicle (adult THAL): ↑ (1-1.49 times higher than vehicle)
N-palmitoyl valine level vs vehicle (adult THAL): ↑↑ (1.50-1.99 times higher than vehicle)
Oleic Acid level vs vehicle (adult THAL): ↓ (1-1.49 times lower than vehicle)
number of lipids changed (adult THAL): 15
changes in PG levels (adult brain): 14
changes in lipoamines derived from AA (adult brain): 20
decreases in 2-acyl glycerol levels (adult brain): 15
decreases in PG levels (adult brain): 8
decreases in free fatty acid levels (adult brain): 11
increases in PG levels (adult brain): 6
percentage of detected lipids modified with acute CP (adult brain, 406 detected): 23.89%
2-arachidonoyl glycerol, Direction (relative to Veh) [1]: ↓
2-arachidonoyl glycerol, Magnitude (x Veh level) [1]: 0.78 x Veh level
2-linoleoyl glycerol Direction (relative to Veh) [1]: ↓
2-linoleoyl glycerol Magnitude (x Veh level) [1]: 0.76 x Veh level
2-oleoyl glycerol, Direction (relative to Veh) [1]: ↓
2-oleoyl glycerol, Magnitude (x Veh level) [1]: 0.82 x Veh level
2-palmitoyl glycerol, Direction (relative to Veh) [1]: ↓
2-palmitoyl glycerol, Magnitude (x Veh level) [1]: 0.80 x Veh level
Arachidonic acid, Direction (relative to Veh) [1]: ↓
Arachidonic acid, Magnitude (x Veh level) [1]: 0.86 x Veh level
Linoleic acid, Direction (relative to Veh) [1]: ↓
Linoleic acid, Magnitude (x Veh level) [1]: 0.71 x Veh level
N-arachidonoyl GABA level, Mean [1]: 1.08E-11
N-arachidonoyl alanine level, Mean [1]: 9.45E-13
N-arachidonoyl dopamine level, Mean [1]: BDL
N-arachidonoyl ethanolamine level, Mean [1]: 1.14E-11
N-arachidonoyl glycine level, Mean [1]: 1.87E-12
N-arachidonoyl phenylalanine level, Mean [1]: 5.84E-14
N-arachidonoyl taurine Direction (relative to Veh) [1]: ↓
N-arachidonoyl taurine Magnitude (x Veh level) [1]: 0.94 x Veh level
N-arachidonoyl tyrosine, Direction (relative to Veh) [1]: ↓
N-arachidonoyl tyrosine, Magnitude (x Veh level) [1]: 0.66 x Veh level
N-docosahexaenoyl GABA level, Mean [1]: 7.61E-12
